# The source made the active and inactive calls.
# Columns and labels:
# [1] = cells; assay type: functional, cell-based
# [2] = target: T1, Nuclear receptor subfamily 0 group B member 1 (Homo sapiens, UniProt P51843); assay type: functional, cell-based;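 further: HEK293T cells transfected with SF-1 and DAX-1 plus StAR promoter luciferase reporter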
# T1 sequence (P51843 whole entry): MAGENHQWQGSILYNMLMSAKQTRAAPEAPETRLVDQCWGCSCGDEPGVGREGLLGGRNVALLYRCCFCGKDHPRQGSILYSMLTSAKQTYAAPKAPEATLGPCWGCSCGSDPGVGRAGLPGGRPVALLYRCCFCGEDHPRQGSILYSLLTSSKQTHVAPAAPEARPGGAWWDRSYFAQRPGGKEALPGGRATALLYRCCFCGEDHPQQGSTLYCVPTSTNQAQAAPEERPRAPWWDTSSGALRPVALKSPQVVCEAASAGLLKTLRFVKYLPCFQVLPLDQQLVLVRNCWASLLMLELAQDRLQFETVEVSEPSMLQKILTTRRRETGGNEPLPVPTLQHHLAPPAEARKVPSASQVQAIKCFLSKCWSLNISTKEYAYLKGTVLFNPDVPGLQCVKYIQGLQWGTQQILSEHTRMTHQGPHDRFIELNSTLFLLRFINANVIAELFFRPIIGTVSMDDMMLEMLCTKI
# [3] = test system: Vero; test: Vero cell toxicity, dose response, cytotoxicity control, plate reader, cherry-pick samples (AID 687020); assay type: functional, cell-based; conditions: Chlorocebus sabaeus
# [4] = target: T2, Sentrin-specific protease 1 (Homo sapiens, UniProt Q9P0U3); test: potency of human SENP1 inhibitors, dose response, biochemical, kinetic FRET (AID 651697); assay type: functional; conditions: read-out: IC50_Mean
# T2 sequence (Q9P0U3 whole entry): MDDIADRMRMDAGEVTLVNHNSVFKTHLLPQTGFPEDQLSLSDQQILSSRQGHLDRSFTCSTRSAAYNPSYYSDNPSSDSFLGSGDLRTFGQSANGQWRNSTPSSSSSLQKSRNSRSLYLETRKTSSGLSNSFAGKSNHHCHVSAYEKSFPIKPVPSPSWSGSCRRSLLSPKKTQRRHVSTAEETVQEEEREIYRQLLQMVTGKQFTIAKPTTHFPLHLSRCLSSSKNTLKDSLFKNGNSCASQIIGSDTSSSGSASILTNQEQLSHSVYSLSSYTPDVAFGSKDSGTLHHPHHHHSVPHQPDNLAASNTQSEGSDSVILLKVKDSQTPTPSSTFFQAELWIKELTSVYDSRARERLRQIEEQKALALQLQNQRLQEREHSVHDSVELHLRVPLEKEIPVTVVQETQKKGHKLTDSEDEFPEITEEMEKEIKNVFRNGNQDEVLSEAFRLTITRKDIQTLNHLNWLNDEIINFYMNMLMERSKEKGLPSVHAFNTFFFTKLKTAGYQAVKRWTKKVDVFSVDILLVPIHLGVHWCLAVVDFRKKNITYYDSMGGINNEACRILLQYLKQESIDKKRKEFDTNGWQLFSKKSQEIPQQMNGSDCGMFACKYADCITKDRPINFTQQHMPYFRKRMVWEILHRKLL
# [5] = target: T2, Sentrin-specific protease 1; test: Dose response confirmation of small molecule inhibitors of the catalytic domain of the SUMO protease, SENP1 in a FRET assay.; assay type: functional; conditions: read-out: IC50_Mean
# [6] = cells; assay type: functional, cell-based; remark: listed apart in the source
# [7] = target: T3, Trace amine-associated receptor 1 (Homo sapiens, UniProt Q96RJ0); test: Fluorescence-based cell-based high throughput dose response assay to identify agonists of the human trace amine associated receptor 1 (TAAR1).; assay type: functional
# T3 sequence (Q96RJ0 whole entry): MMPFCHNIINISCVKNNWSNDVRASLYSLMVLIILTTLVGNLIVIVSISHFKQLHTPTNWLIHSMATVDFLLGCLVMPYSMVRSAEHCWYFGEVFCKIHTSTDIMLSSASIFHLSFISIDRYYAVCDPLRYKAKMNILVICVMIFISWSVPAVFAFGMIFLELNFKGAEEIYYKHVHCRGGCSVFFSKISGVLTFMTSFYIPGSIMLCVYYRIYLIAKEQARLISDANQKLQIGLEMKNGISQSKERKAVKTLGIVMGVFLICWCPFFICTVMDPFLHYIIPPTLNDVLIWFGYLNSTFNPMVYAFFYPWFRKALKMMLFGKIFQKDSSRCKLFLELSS
# [8] = target: T3, Trace amine-associated receptor 1; test: Counterscreen for agonists of the human trace amine associated receptor 1 (hTAAR1): Fluorescence-based cell-based high throughput dose response assay to identify hTAAR1 agonist that also desensitize TAAR1 receptor response.; assay type: functional
# [9] = cells; assay type: functional, cell-based; remark: listed apart in the source
# [10] = Luminescence Cell-Based Dose Retest to Confirm Inhibitors of Cancer Stem Cells. [Related pubchem assays (depositor defined):AID2717, AID2721]; assay type: functional; conditions: Homo sapiens
# [11] = target: T4, Small ubiquitin-related modifier 1 (Homo sapiens, UniProt P63165); test: inhibitors of SUMO1 peptide binding, dose response, biochemical, fluorescence polarization, uHTS hits (AID 624382); assay type: functional; conditions: read-out: IC50_Mean
# T4 sequence (P63165 whole entry): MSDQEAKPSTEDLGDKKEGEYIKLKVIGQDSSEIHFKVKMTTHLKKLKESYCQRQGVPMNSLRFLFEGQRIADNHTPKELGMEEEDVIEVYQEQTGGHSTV
# [12] = target: T4, Small ubiquitin-related modifier 1; test: inhibitors of SUMO1 partner interactions, dose response, biochemical, FRET (AID 624383); assay type: functional; conditions: read-out: IC50_Mean
# [13] = HeLa cell cytotoxicity, dose response, cytotoxicity control for MgcRacGAP inhibitor project (AID 624300); assay type: functional
# [14] = target: T5, Rac GTPase-activating protein 1 (Homo sapiens, UniProt Q9H0H5); test: MgcRacGAP GTPase-activating activity inhibitors, confirmation, biochemical, ADP Hunter fluorescence, primary and confirmatory (AID 624330); assay type: functional
# T5 sequence (Q9H0H5 whole entry): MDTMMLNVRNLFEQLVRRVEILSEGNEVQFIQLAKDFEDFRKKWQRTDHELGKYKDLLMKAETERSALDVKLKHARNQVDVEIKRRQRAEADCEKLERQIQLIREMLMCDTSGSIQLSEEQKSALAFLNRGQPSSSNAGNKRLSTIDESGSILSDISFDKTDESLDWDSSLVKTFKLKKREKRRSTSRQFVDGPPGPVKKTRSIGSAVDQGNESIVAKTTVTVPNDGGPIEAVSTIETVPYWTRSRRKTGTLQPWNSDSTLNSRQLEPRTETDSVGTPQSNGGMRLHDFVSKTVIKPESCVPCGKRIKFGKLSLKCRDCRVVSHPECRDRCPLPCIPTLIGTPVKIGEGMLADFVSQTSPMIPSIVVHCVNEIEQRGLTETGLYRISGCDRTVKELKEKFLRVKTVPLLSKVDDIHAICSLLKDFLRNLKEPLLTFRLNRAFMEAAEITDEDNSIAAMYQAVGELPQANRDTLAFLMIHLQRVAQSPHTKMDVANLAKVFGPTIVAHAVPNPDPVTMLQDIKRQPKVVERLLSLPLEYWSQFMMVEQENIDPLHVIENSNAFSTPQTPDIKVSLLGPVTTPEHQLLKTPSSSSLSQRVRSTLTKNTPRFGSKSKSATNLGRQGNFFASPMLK
# [15] = target: T6, Streptokinase A (Streptococcus pyogenes serotype M1, UniProt P10520); test: S. pyogenes streptokinase expression inhibitors, potency, dose response, plasminogen activation absorbance, OD405 (AID 1914); assay type: functional, Streptococcus pyogenes M1 GAS;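 further: secreted streptokinase activity via plasminogen activation per viability signal from cell pellet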
# T6 sequence (P10520 whole entry): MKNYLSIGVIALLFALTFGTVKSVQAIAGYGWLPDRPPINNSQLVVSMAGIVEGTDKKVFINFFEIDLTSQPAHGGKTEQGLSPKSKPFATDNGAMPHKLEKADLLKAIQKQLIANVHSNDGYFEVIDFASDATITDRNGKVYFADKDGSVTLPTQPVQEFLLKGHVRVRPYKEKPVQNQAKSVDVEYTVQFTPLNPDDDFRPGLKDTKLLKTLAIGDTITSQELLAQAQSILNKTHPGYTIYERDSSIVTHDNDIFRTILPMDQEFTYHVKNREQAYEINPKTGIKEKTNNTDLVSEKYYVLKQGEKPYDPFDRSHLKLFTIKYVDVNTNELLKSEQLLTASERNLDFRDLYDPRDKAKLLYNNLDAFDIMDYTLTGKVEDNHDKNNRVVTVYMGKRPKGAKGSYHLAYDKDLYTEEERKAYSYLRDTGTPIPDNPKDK
# [16] = test system: Streptococcus; test: Group A Streptococcus viability loss, dose response, counter-screen for streptokinase expression inhibitor project, luminescence, BacTiterGlo (AID 1915); assay type: functional, organism-based;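 further: potency for reduction of bacterial viability or growth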
# [17] = target: SWI/SNF-related matrix-associated actin-dependent regulator of chromatin subfamily A member 2 (Homo sapiens, UniProt P51531); test: Luminescence-based cell-based high throughput dose response assay to identify activators of the function of SWI/SNF related, matrix associated, actin dependent regulator of chromatin, subfamily a, member 2 (SMARCA2, BRM).; assay type: functional
# Chain of SWI/SNF-related matrix-associated actin-dependent regulator of chromatin subfamily A member 2 (P51531 whole entry): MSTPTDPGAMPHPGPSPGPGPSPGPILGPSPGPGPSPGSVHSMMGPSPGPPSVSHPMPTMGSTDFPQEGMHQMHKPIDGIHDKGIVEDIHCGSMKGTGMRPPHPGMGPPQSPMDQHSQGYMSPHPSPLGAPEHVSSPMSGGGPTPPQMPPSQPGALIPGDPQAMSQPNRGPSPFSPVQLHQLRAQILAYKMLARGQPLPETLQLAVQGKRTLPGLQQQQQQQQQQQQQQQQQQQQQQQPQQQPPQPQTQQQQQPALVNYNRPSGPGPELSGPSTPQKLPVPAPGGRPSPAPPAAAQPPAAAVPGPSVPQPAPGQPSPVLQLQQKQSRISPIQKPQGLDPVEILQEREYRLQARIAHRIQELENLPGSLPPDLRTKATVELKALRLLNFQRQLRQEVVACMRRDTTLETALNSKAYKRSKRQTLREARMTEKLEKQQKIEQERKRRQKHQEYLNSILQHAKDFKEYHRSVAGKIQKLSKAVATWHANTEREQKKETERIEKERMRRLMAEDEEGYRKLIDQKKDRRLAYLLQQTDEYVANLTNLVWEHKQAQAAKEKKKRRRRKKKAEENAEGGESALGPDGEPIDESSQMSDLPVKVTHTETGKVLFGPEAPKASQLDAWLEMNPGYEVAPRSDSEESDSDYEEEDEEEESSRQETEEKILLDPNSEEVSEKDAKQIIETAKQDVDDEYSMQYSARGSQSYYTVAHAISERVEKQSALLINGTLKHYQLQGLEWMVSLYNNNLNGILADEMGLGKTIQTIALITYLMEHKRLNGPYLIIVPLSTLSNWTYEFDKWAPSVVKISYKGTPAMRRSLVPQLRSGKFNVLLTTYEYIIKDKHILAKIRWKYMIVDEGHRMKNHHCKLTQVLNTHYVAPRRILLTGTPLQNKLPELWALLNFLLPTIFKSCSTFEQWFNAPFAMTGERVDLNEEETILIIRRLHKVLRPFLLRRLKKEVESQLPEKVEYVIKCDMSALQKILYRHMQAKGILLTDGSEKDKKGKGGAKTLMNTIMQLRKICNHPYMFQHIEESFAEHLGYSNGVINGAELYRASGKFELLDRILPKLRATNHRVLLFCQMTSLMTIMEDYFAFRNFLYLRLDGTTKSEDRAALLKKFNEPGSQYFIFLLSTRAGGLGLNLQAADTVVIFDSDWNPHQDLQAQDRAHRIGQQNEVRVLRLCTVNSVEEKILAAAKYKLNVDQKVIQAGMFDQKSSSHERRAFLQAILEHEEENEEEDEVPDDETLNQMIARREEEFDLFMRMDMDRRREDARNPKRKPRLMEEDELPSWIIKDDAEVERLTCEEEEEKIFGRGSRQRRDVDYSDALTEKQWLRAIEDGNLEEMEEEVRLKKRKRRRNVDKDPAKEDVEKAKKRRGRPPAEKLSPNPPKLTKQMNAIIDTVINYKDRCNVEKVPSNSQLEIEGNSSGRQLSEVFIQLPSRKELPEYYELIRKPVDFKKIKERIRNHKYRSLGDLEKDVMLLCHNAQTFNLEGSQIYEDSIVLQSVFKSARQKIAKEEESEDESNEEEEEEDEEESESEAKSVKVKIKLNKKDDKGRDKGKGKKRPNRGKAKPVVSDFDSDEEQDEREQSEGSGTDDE
# [18] = Counterscreen for activators of the function of SWI/SNF related, matrix associated, actin dependent regulator of chromatin, subfamily a, member 2 (SMARCA2, BRM): Luminescence-based cell-based high throughput dose response assay to identify non-selective compounds using the VP16 reporter assay.; assay type: functional
# [19] = target: T7, DNA repair protein RAD52 homolog (Homo sapiens, UniProt P43351); assay type: functional, biochemical
# T7 sequence (P43351 whole entry): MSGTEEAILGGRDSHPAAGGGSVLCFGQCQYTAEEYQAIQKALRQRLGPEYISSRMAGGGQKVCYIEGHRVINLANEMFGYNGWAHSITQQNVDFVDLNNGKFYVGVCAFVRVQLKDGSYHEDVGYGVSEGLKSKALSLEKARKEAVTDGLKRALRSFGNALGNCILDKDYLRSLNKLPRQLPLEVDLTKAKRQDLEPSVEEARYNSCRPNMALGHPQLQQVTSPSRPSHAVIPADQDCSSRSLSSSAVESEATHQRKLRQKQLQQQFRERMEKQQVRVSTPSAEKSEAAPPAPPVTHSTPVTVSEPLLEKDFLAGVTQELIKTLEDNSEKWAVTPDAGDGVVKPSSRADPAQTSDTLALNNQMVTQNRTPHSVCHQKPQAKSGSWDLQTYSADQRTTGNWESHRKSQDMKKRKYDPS
# [20] = target: T8, Aminopeptidase N (Plasmodium falciparum FcB1/Columbia, UniProt O96935); test: P. falciparum M1AAP inhibitors, biochemical, fluorogenic H-Leu-NHMec substrate, 1536-well (AID 1445); design: species or system Plasmodium falciparum 3D7, 3D7
# T8 sequence (O96935 whole entry): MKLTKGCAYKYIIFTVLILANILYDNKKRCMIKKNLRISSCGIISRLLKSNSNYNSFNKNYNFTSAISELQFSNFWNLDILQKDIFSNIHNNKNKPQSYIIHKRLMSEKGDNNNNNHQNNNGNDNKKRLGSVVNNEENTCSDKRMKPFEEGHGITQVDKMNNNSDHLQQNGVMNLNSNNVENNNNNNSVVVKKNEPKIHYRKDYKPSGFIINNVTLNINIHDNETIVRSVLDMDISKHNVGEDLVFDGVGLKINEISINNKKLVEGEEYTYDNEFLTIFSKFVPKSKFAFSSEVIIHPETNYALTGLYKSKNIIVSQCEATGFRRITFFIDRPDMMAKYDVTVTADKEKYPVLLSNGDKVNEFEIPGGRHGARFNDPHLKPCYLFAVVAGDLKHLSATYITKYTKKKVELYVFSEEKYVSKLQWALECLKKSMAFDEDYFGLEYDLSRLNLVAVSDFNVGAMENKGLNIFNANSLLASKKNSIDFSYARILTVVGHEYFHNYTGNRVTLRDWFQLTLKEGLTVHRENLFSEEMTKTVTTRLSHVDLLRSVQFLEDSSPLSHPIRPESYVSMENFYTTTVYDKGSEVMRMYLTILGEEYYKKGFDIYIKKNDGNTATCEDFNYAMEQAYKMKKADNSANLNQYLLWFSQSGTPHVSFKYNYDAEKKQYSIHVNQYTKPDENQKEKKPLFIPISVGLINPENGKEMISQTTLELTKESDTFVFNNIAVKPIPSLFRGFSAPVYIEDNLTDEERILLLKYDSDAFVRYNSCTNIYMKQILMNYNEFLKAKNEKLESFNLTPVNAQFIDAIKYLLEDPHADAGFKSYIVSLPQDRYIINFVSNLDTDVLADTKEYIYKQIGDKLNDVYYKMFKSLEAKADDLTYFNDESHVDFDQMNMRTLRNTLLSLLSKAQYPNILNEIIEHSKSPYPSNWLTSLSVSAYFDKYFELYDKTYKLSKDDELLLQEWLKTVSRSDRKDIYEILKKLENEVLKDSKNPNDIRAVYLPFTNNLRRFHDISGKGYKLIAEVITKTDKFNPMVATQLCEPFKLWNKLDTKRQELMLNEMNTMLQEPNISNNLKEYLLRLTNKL
# [21] = test system: Vero; test: cells; assay type: functional, cell-based; conditions: Chlorocebus sabaeus
structure (smiles),measurement,setting,value
Cc1cc(C)c2nc(NC(=O)c3ccco3)sc2c1,IC50,[1],> 67.5 µM (inactive)
same,IC50,[2],> 0.278 µM (active)
CCOc1ccccc1-c1nnc(CS(=O)(=O)c2ccccc2)o1,AC50,[3],23.9 µM (active)
CCN(CC)c1nc2cc(C)ccc2cc1/C=C(\C#N)C(N)=O,IC50,[4],17.3 µM (active)
same,IC50,[5],20 µM (inactive)
COc1cccc(N2CN(CCc3ccccc3)CN=C2S)c1,IC50,[6],> 29.9 µM (inactive)
same,EC50,[7],0.758 µM (active)
same,IC50,[8],3.52 µM (active)
same,EC50,[9],> 29.9 µM (inactive)
O=C(O)c1cccc(S(=O)(=O)NNc2ccccc2C(F)(F)F)c1,AC50,[10],10.8 µM (active)
same,IC50,[11],> 66.6 µM (inactive)
same,IC50,[12],9.06 µM (active)
CN(C(=O)C1CCC(=O)N(Cc2cccc(F)c2)C1)C1CCCCC1 (stereo not given),IC50,[1],> 67.6 µM (inactive)
same,IC50,[2],> 67.6 µM (inactive)
Fc1ccc(CNc2ccc(N3CCN(Cc4ccccc4)CC3)cc2)cc1,CC50,[13],98.7 µM (active)
same,IC50,[14],15.4 µM (active)
O=C(Nc1cccc(-c2nc3ccccc3[nH]2)c1)c1ccc(C(=O)Nc2cccc(-c3nc4ccccc4[nH]3)c2)cc1,EC50,[15],> 150 µM (not active)
same,EC50,[16],61.9 µM (active)
same,IC50,[11],> 66.6 µM (inactive)
same,IC50,[12],6.29 µM (active)
COc1ccc(-c2nc3c(C(=O)NCCN(C)C)cccc3c3ccccc23)cc1,EC50,[17],> 91.2 µM (inactive)
same,EC50,[18],> 91.2 µM (inactive)
same,AC50,[19],2.89 µM (active)
O=C(C[C@H]1C(=O)N(Cc2ccccc2)C[C@@H]1Cc1ccccc1)Nc1ccc(Br)cc1,AC50,[3],31.4 µM (active)
Cn1ccc(C(=O)N/N=C/c2c[nH]c3ccccc23)n1,EC50,[17],> 91.2 µM (inactive)
same,EC50,[18],> 91.2 µM (inactive)
O=C(N/N=C(\CC(=O)c1cccs1)C(F)(F)F)c1ccncc1,IC50,[20],48.8 µM (active)
same,IC50,[21],24.8 µM (active)
same,IC50,[4],38 µM (inactive)
same,IC50,[5],10.1 µM (active)
